pIC50: −log10 of the molar value.
These compounds were tested on IL-1b (assay: Human Whole Blood (HWB) IL-1b Assay). Conditions: compound 0.5 h, 100 ng/mL LPS 3.5 h, 5 mM ATP 45 min, IL-1b ELISA of supernatant.
Type: cell-based
Protocol: Assay run as in Tran et al. “Whole blood assay as a model for in vitro evaluation of inflammasome activation and subsequent caspase-mediated interleukin-1 beta release” PLoSONE 14(4): e0214999.https://doi.org/10.1371/journal.pone.0214999. Namely, freshly drawn human whole blood with anti-coagulant was incubated with test compounds at various titration points for 0.5 hrs at 37° C. in 5% CO2. The cells were subsequently primed with 100 ng/mL LPS for 3.5 hours at 37° C. followed by stimulation with 5 mM ATP for an additional 45 minutes. The supernatant was harvested and analyzed for human IL-1b concentration using commercially available ELISA kits.
A pIC50 of over 6.00 was found for O=C(Nc1c2c(c(F)c3c1CCC3)CCC2)NS(=O)(=O)c1cc2c(o1)C1CCN(CC1)C2 [Compound 32, N-((8-fluoro-1,2,3,5,6,7-hexahydro-s-indacen-4-yl)carbamoyl)-4,6,7,8-tetrahydro-5,8-ethanofuro[3,2-c]azepine-2-sulfonamide] in this work.
A pIC50 of 5.00 to 6.00 was found for CC#Cc1ccc2c(c1NC(=O)NS(=O)(=O)c1cc3c(o1)C1CCN(CC1)C3)CCC2 [Compound 44, N-((5-(prop-1-yn-1-yl)-2,3-dihydro-1H-inden-4-yl)carbamoyl)-4,6,7,8-tetrahydro-5,8-ethanofuro[3,2-c]azepine-2-sulfonamide] in this work.
A pIC50 of over 6.00 was found for O=C(Nc1c2c(cc3c1CCC3)CCC2)NS(=O)(=O)c1cc2c(s1)C1CCN(CC1)C2 [Compound 25] in this work.
A pIC50 of over 6.00 was found for CC(C)c1ccc2c(c1NC(=O)NS(=O)(=O)c1cc3c(o1)C1CCN(CC1)C3)CCC2 [Compound 29, N-((5-isopropyl-2,3-dihydro-1H-inden-4-yl)carbamoyl)-4,6,7,8-tetrahydro-5,8-ethanofuro[3,2-c]azepine-2-sulfonamide] in this work.
A pIC50 of 5.00 to 6.00 was found for O=C(Nc1c(C2CCC2)ccc2c1CCC2)NS(=O)(=O)c1cc2c(o1)C1CCN(CC1)C2 [Compound 42, N-((5-cyclobuty1-2,3-dihydro-1H-inden-4-yl)carbamoyl)-4,6,7,8-tetrahydro-5,8-ethanofuro[3,2-c]azepine-2-sulfonamide] in this work.
A pIC50 of 5.00 to 6.00 was found for CC(C)c1cc(F)cc(C(C)C)c1NC(=O)NS(=O)(=O)c1cc2c(o1)C1CCN(CC1)C2 [Compound 34, N-((4-fluoro-2,6-diisopropylphenyl)carbamoyl)-4,6,7,8-tetrahydro-5,8-ethanofuro[3,2-c]azepine-2-sulfonamide] in this work.
A pIC50 of over 6.00 was found for O=C(Nc1c2c(cc3c1CCO3)CCC2)NS(=O)(=O)c1cc2c(o1)C1CCN(CC1)C2 [Compound 40, N-((3,5,6,7-tetrahydro-2H-indeno[5,6-b]furan-4-yl)carbamoyl)-4,6,7,8-tetrahydro-5,8-ethanofuro[3,2-c]azepine-2-sulfonamide] in this work.
A pIC50 of over 6.00 was found for COc1cc(-c2ccc3c(c2NC(=O)NS(=O)(=O)c2cc4c(s2)C2CCN(CC2)C4)CCC3)ccn1 [Compound 28, N-((5-(2-methoxypyridin-4-yl)-2,3-dihydro-1H-inden-4-yl)carbamoyl)-4,6,7,8-tetrahydro-5,8-ethanothieno[3,2-c]azepine-2-sulfonamide] in this work.
A pIC50 of over 6.00 was found for CC(C)c1cc(F)c2c(c1NC(=O)NS(=O)(=O)c1cc3c(o1)C1CCN(CC1)C3)CCC2 [Compound 30, N-((7-fluoro-5-isopropyl-2,3-dihydro-1H-inden-4-yl)carbamoyl)-4,6,7,8-tetrahydro-5,8-ethanofuro[3,2-c]azepine-2-sulfonamide] in this work.
A pIC50 of over 6.00 was found for CC(C)c1c(F)c(Cl)c(F)c(C(C)C)c1NC(=O)NS(=O)(=O)c1cc2c(o1)C1CCN(CC1)C2 [Compound 35, N-((4-chloro-3,5-difluoro-2,6-diisopropylphenyl)carbamoyl)-4,6,7,8-tetrahydro-5,8-ethanofuro[3,2-c]azepine-2-sulfonamide] in this work.
A pIC50 of 5.00 to 6.00 was found for O=C(Nc1c(C2CCCC2)ccc2c1CCC2)NS(=O)(=O)c1cc2c(o1)C1CCN(CC1)C2 [Compound 39, N-((5-cyclopentyl-2,3-dihydro-1H-inden-4-yl)carbamoyl)-4,6,7,8-tetrahydro-5,8-ethanofuro[3,2-c]azepine-2-sulfonamide] in this work.
A pIC50 of 5.00 to 6.00 was found for N#Cc1c2c(c(NC(=O)NS(=O)(=O)c3cc4c(o3)C3CCN(CC3)C4)c3c1CCC3)CCC2 [Compound 33, N-((8-cyano-1,2,3,5,6,7-hexahydro-s-indacen-4-yl)carbamoyl)-4,6,7,8-tetrahydro-5,8-ethanofuro[3,2-c]azepine-2-sulfonamide] in this work.
A pIC50 of over 6.00 was found for O=C(Nc1c2c(cc3c1CCC3)CCC2)NS(=O)(=O)c1cc2c(o1)C1CCN(CC1)C2 [Compound 13, sodium ((1,2,3,5,6,7-hexahydro-s-indacen-4-yl)carbamoyl)((4,6,7,8-tetrahydro-5,8-ethanofuro[3,2-c]azepin-2-yl)sulfonyl)amide] in this work.
A pIC50 of 5.00 to 6.00 was found for CC(C)c1c(F)cc(F)c(C(C)C)c1NC(=O)NS(=O)(=O)c1cc2c(o1)C1CCN(CC1)C2 [Compound 36, N-((3,5-difluoro-2,6-diisopropylphenyl)carbamoyl)-4,6,7,8-tetrahydro-5,8-ethanofuro[3,2-c]azepine-2-sulfonamide] in this work.
A pIC50 of over 6.00 was found for CC(C)c1ccc(F)c(C(C)C)c1NC(=O)NS(=O)(=O)c1cc2c(o1)C1CCN(CC1)C2 [Compound 31, N-((3-fluoro-2,6-diisopropylphenyl)carbamoyl)-4,6,7,8-tetrahydro-5,8-ethanofuro[3,2-c]azepine-2-sulfonamide] in this work.
A pIC50 of 5.00 to 6.00 was found for O=C(Nc1c(C2CCOCC2)ccc2c1CCC2)NS(=O)(=O)c1cc2c(o1)C1CCN(CC1)C2 [Compound 37, N-((5-(tetrahydro-2H-pyran-4-yl)-2,3-dihydro-1H-inden-4-yl)carbamoyl)-4,6,7,8-tetrahydro-5,8-ethanofuro[3,2-c]azepine-2-sulfonamide] in this work.
A pIC50 of over 6.00 was found for O=C(Nc1c(C(F)(F)F)ccc2c1CCC2)NS(=O)(=O)c1cc2c(o1)C1CCN(CC1)C2 [Compound 41, N-((5-(trifluoromethyl)-2,3-dihydro-1H-inden-4-yl)carbamoyl)-4,6,7,8-tetrahydro-5,8-ethanofuro[3,2-c]azepine-2-sulfonamide] in this work.
A pIC50 of 5.00 to 6.00 was found for O=C(Nc1c(C2=CCC2)ccc2c1CCC2)NS(=O)(=O)c1cc2c(o1)C1CCN(CC1)C2 [Compound 43, N-((5-(cyclobut-1-en-1-yl)-2,3-dihydro-1H-inden-4-yl)carbamoyl)-4,6,7,8-tetrahydro-5,8-ethanofuro[3,2-c]azepine-2-sulfonamide] in this work.
A pIC50 of over 6.00 was found for COc1cc(-c2ccc3c(c2NC(=O)NS(=O)(=O)c2cc4c(o2)C2CCN(CC2)C4)CCC3)ccn1 [Compound 27, N-((5-(2-methoxypyridin-4-yl)-2,3-dihydro-1H-inden-4-yl)carbamoyl)-4,6,7,8-tetrahydro-5,8-ethanofuro[3,2-c]azepine-2-sulfonamide] in this work.
A pIC50 of over 6.00 was found for O=C(Nc1c(C2CC2)ccc2c1CCC2)NS(=O)(=O)c1cc2c(o1)C1CCN(CC1)C2 [Compound 38, N-((5-cyclopropyl-2,3-dihydro-1H-inden-4-yl)carbamoyl)-4,6,7,8-tetrahydro-5,8-ethanofuro[3,2-c]azepine-2-sulfonamide] in this work.

The compounds below were run on IL-1b (assay: Mouse BMDM IL-1b Assay). Conditions: Macrophage, C57BL6 bone marrow derived macrophages, 200 ng/mL LPS 3 h, compound 30 min, 5 mM ATP 45 min, IL-1b ELISA of supernatant.
Type: cell-based
Protocol: Mouse bone marrow cells from C57BL6 tibia and femur were culture in complete Isocov's Media supplemented with 20 ng/mL MCSF (BMDM media) at a density of 50 million cells/15 cm Petri dish. Fresh media was changed every 3 days, and bone marrow derived macrophages were collected, washed, and counted on day 7. Cells were seeded into 96 well plates at a density of 5×10^4 cells per well in 100 uL of BMDM media and cultured overnight. The cells were stimulated at 37° C. with 200 ng/mL Ultrapure LPS-B5 for 3 hours before pre-diluted compounds were added. 30 minutes after compound addition, 5 mM ATP was added for the secondary stimulation for 45 minutes. After stimulation, the plates were briefly spun down, and 50 uL of supernatant was harvested from each well. ELISA for mouse IL-1b was performed with 1:10 and 1:100 diluted supernatant using pre-coated kits. IL-1b concentrations were calculated based on pre-titrated standards, and compound inhibition IC50 is generated using the Levenberg Marquardt damped lease-square method.
A pIC50 of over 7.00 was found for O=C(Nc1c2c(cc3c1CCC3)CCC2)NS(=O)(=O)c1cc2c(o1)C1CCN(CC1)C2 [Compound 13, sodium ((1,2,3,5,6,7-hexahydro-s-indacen-4-yl)carbamoyl)((4,6,7,8-tetrahydro-5,8-ethanofuro[3,2-c]azepin-2-yl)sulfonyl)amide] in this work.
A pIC50 of over 7.00 was found for O=C(Nc1c2c(cc3c1CCC3)CCC2)NS(=O)(=O)c1cc2c(s1)C1CCN(CC1)C2 [Compound 26, sodium ((1,2,3,5,6,7-hexahydro-s-indacen-4-yl)carbamoyl)((4,6,7,8-tetrahydro-5,8-ethanothieno[3,2-c]azepin-2-yl)sulfonyl)amide] in this work.

Reference: patent US20240101571A1, “NLRP3 MODULATORS” (Zomagen Biosciences Ltd, priority 2020, published 2024)
